Test results taken from patent publication US12048678B2, “Compounds for treating myelin related disorders” (Case Western Reserve University, priority 2018, dated 2024).

Columns and labels:
[1] = system: oligodendrocyte progenitor cells (OPCs), OPC-5; assay: Differentiation of OPCs to MBP+ oligodendrocytes (in vitro phenotypic screening, high-content imaging); type: cell-based, mouse; conditions: for activation at 0.03 µM / activation at 0.1 µM / activation at 0.3 µM / activation at 1 µM: Mus musculus, Oligodendrocyte progenitor cell, 72 h treatment; for activation at 0.03 µM: read-out: % enhancement of MBP+ oligodendrocyte generation at 0.03 μM concentration; for activation at 0.1 µM: read-out: % enhancement of MBP+ oligodendrocyte generation at 0.1 μM concentration; for activation at 0.3 µM: read-out: % enhancement of MBP+ oligodendrocyte generation at 0.3 μM concentration; for activation at 1 µM: read-out: % enhancement of MBP+ oligodendrocyte generation at 1 μM concentration; for enhancement of oligodendrocyte formation (in words): OPC-5, FIGS. 2a-2c
Method: To rigorously assess effects of small molecule and genetic treatments on OPCs, all treatments were assayed in two batches of epiblast stem cell-derived OPCs, and key results were confirmed using mouse primary OPCs. OPCs were generated from two separate EpiSC lines, EpiSC5 (giving rise to OPC-5 OPCs) and 12901 (giving rise to OPC-1 OPCs). EpiSC-derived OPCs were obtained using in vitro differentiation protocols and culture conditions described previously. To ensure uniformity throughout all in vitro screening experiments, EpiSC-derived OPCs were sorted to purity by fluorescence activated cell sorting at passage five with conjugated CD 140a-APC (eBioscience, 17-1401; 1:80) and NG2-AF488 (Millipore, AB5320A4; 1:100) antibodies. Sorted batches of OPCs were expanded and frozen down in aliquots. OPCs were thawed into growth conditions for one passage before use in further assays. Cultures were regularly tested and shown to be mycoplasma free.
EpiSC-derived OPCs were grown and expanded in poly-ornithine (PO) and laminin-coated flasks with growth medium (DMEM/F12 supplemented with N2-MAX (R&D Systems), B-27 (ThermoFisher), GlutaMax (Gibco), FGF2 ([…], R&D systems, 233-FB-025) and PDGF-AA ([…], R&D systems, 233-AA-050) before harvesting for plating. The cells were seeded onto poly-D-lysine 96-well CellCarrier or CellCarrierUltra plates (PerkinElmer) coated with laminin (Sigma, L2020; 15 μg/ml) using multi-channel pipet. For the experiment, 800,000 cells/mL stock in differentiation medium (DMEM/F12 supplemented with N2-MAX and B-27) was prepared and stored on ice for 2 h. Then, 40,000 cells were seeded per well in differentiation medium and allowed to attach for 30 min before addition of drug. For dose-response testing of all molecules except sterols, a 1000× compound stock in dimethyl sulphoxide (DMSO) was added to assay plates with 0.1 μL solid pin multi-blot replicators (V & P Scientific; VP 409), resulting in a final primary screening concentration of 1×. Cells were incubated under standard conditions (37° C., 5% CO2) for 3 days and fixed with 4% paraformaldehyde (PFA) in phosphate buffered saline (PBS) for 20 min. Fixed plates were washed with PBS (200 μL per well) twice, permeabilized with 0.1% Triton X-100 and blocked with 10% donkey serum (v/v) in PBS for 40 min. Then, cells were labelled with MBP antibodies (Abcam, ab7349; 1:200) for 16 h at 4° C. followed by detection with Alexa Fluor conjugated secondary antibodies (1:500) for 45 min. Nuclei were visualized by DAPI staining (Sigma; 1 μg/ml). During washing steps, PBS was added using a multi-channel pipet and aspiration was performed using Biotek EL406 washer dispenser (Biotek) equipped with a 96-well aspiration manifold.
Plates were imaged on the Operetta High Content Imaging and Analysis system (PerkinElmer) and a set of 6 fields captured from each well resulting in an average of 1200 cells being scored per well. Analysis (PerkinElmer Harmony and Columbus software) began by identifying intact nuclei stained by DAPI; that is, those traced nuclei that were larger than 300 μm2 in surface area. Each traced nucleus region was then expanded by 50% and cross-referenced with the […] (MBP) stain to identify oligodendrocyte nuclei, and from this the percentage of oligodendrocytes was calculated.

[2] = system: cholesterol biosynthesis in OPCs (CYP51, TM7SF2, EBP); assay: GC/MS-based sterol profiling in OPCs; type: cell-based, mouse; conditions: GC-MS
Method: EpiSC-derived OPCs were plated at 0.5 million cells per ml in PDL- and laminin-coated six or twelve well plate with differentiation media. After 24 hours, cells were dissociated with Accutase, rinsed with saline, and cell pellets were frozen. For sterol analyses, cells were lysed in methanol (Sigma-Aldrich) with agitation for 30 minutes and cell debris removed by centrifugation at 10,000 rpm for 15 min. Cholesterol-d7 standard (25,26,26,26,27,27,27-^2H7-cholesterol, Cambridge Isotope Laboratories) was added before drying under nitrogen stream and derivatization with 55 μl of bis(trimethylsilyl)trifluoroacetamide/trimethylchlorosilane to form trimethylsilyl derivatives. Following derivatization at 60° C. for 20 minutes, 1 μl was analyzed by gas chromatography/mass spectrometry using an Agilent 5973 Network Mass Selective Detector equipped with a 6890 gas chromatograph system and a HP-5MS capillary column ([…]). Samples were injected in splitless mode and analyzed using electron impact ionization. Ion fragment peaks were integrated to calculate sterol abundance, and quantitation was relative to cholesterol-d7. The following m/z ion fragments were used to quantitate each metabolite: cholesterol-d7 (465), FF-Mas (482), cholesterol (368), zymostenol (458), zymosterol (456), desmosterol (456, 343), 7-dehydrocholesterol (456, 325), lanosterol (393), lathosterol (458), 14-dehydrozymostenol (456). Calibration curves were generated by injecting varying concentrations of sterol standards and maintaining a fixed amount of cholesterol-D7. The human glioma cell line GBM528 was a gift of Jeremy Rich (Cleveland Clinic). Human cortical spheroids were generated as described previously.

[3] = target: T1, M1 muscarinic receptor (Homo sapiens, UniProt P11229); assay: Muscarinic receptor antagonism assay (GeneBLAzer M1-NFAT-bla CHO-K1 cells); type: cell-based; conditions: Compound 1 at 1 μM, TASIN-1 100 nM; concentration maximally effective for oligodendrocyte formation
T1 sequence (P11229 1-460): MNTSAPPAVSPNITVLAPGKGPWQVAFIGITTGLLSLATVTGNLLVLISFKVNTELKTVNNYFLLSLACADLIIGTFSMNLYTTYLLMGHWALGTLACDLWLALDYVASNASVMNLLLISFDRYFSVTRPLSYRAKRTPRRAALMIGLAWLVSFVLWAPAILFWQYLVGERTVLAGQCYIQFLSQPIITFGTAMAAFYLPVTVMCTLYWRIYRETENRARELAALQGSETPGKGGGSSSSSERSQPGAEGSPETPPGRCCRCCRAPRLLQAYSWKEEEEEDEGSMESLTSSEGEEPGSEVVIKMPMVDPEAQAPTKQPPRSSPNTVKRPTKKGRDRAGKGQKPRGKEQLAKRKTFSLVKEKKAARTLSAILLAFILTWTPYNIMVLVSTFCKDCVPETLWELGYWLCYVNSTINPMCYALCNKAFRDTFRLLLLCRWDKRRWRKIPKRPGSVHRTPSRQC
Method: GeneBLAzer M1-NFAT-bla CHO-K1 cells (or M3- or M5-NFAT-bla CHO-K1 cells)(ThermoFisher) were thawed into Assay Media (DMEM, 10% dialyzed FBS, 25 mM HEPES pH 7.3, 0.1 mM NEAA). 10,000 cells/well were added to a 384-well TC treated assay plate and incubated 16-24 h at 37° C. 4 μl of a 10× stock of antimuscarinic molecules was added to the plate and incubated 30 min. 4 μl of 10× control agonist Carbachol at the pre-determined EC80 concentration was added to wells containing antimuscarinic molecules. The plate was incubated 5 h and 8 μl of 1 μM Substrate+Solution D Loading Solution was added to each well and the plate was incubated 2 h at room temperature before reading on a fluorescence plate reader.

[4] = target: T2, estrogen receptor (T47D cells) (Homo sapiens, UniProt P03372); assay: Estrogen-dependent cell proliferation assay; type: cell-based; conditions: Compound 1 at 1 μM, TASIN-1 100 nM
T2 construct: estrogen dependent growth of T47D cells; endogenous in cells; host or cells: T47D
T2 sequence (P03372 1-595): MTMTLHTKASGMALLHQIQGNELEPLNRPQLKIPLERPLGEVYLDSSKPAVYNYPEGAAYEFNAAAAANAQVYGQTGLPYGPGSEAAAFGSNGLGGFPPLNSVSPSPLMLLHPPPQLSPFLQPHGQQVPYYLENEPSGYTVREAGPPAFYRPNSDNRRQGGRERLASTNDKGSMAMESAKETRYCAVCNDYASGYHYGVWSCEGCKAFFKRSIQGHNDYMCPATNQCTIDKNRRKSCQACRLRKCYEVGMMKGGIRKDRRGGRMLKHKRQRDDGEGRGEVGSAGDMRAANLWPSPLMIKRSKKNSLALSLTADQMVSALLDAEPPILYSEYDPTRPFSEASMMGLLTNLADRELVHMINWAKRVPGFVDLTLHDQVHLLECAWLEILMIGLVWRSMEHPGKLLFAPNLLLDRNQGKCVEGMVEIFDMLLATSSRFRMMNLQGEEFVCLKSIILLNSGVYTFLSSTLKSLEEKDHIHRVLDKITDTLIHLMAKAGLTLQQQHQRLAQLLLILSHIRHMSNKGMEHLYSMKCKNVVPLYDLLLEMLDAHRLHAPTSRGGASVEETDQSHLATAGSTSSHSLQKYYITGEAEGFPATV
Method: Estrogen-dependent cell proliferation was measured as previously described with minor modifications. After growth in estrogen-free media (Phenol red-free RPMI supplemented with 10% charcoal stripped fetal bovine serum) for 5 days, cells were seeded at 2,500 cells/well into 96 well plates. The following day 3× drug containing media was added to triplicate wells and cells were allowed to grow for an additional 5 days at 37° C. in standard a 5% CO2 humidified incubator. Total DNA per well was measured using an adaptation of the method of Labarca and Paigen. At this time media was removed, cells were washed one time with 0.25×PBS and 100 μl of distilled water was added. […] After incubation at room temperature for 2 hours, plates were read in a SpectraMax i3 fluorescent plate reader (Molecular Devices, Sunnyvale, CA) with excitation at 360 nm and emission at 460 nm. All values were converted to microgram DNA per well using a standard curve derived from purified salmon testes DNA.

[5] = target: kappa opioid receptor (Homo sapiens, UniProt P41145); assay: k-Opioid receptor agonism assay (Tango  U2OS cells); type: cell-based; conditions: Compound 1 at 1 μM, TASIN-1 100 nM, U50488 2 μM
kappa opioid receptor, sequence (P41145 whole entry): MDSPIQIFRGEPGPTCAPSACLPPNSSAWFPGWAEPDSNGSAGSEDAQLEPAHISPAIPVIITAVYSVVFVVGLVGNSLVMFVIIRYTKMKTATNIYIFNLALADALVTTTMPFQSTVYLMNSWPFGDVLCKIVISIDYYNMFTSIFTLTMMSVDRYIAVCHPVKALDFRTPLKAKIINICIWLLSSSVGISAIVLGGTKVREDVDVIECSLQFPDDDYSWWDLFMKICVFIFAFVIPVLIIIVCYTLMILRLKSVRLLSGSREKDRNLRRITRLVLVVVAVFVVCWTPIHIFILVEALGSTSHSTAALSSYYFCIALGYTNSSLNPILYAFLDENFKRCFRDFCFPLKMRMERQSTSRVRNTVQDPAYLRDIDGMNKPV

| Compound | activation at 0.03 µM [1] [%] | activation at 0.1 µM [1] [%] | activation at 0.3 µM [1] [%] | activation at 1 µM [1] [%] | enhancement of oligodendrocyte formation (in words) [1] | 14-dehydrozymostenol accumulation in OPCs (indicative of TM7SF2 inhibition) ([2]; 1 μM) | EC50 for enhancing oligodendrocyte formation ([1]; wide concentration range) | cholesterol biosynthesis in OPCs ([2]; 10 μM screening dose) | lanosterol accumulation in OPCs (indicative of CYP51 inhibition) ([2]; 10 μM) | effect in cell-based assay for the M1 muscarinic receptor [3] | effect in cell-based assay for the estrogen receptor (estrogen dependent growth of T47D cells) [4] | effect in cell-based assay for the kappa opioid receptor [5] |
| --- | --- | --- | --- | --- | --- | --- | --- | --- | --- | --- | --- | --- |
| CCN1CCN(Cc2ccc(-c3ccccc3)cc2)CC1 [Compound 2] | 20 to 30 | 30 to 40 | > 40 | > 40 |  |  |  |  |  |  |  |  |
| c1ccc(-c2ccc(CN3CCCCCC3)cc2)cc1 [Compound 3] | 20 to 30 | 20 to 30 | 30 to 40 | > 40 |  |  |  |  |  |  |  |  |
| CCCCOc1ccc(CN2CCCCC2CC)cc1 (stereo not drawn) [Compound 4] | ≤ 20 | 20 to 30 | ≤ 20 | 20 to 30 |  |  |  |  |  |  |  |  |
| Clc1ccc(CN2CCN(Cc3ccccc3)CC2)cc1Cl [Compound 5] | ≤ 20 | 20 to 30 | 30 to 40 | 30 to 40 |  |  |  |  |  |  |  |  |
| CN1CCN(Cc2ccc(-c3ccccc3)cc2)CC1 [Compound 6] | ≤ 20 | 20 to 30 | 30 to 40 | 30 to 40 |  |  |  |  |  |  |  |  |
| c1ccc(-c2ccc(CN3CCSCC3)cc2)cc1 [Compound 7] | ≤ 20 | 30 to 40 | 20 to 30 | 30 to 40 |  |  |  |  |  |  |  |  |
| OC1CCCN(Cc2ccc(-c3ccccc3)cc2)C1 (stereo not drawn) [Compound 8] | 20 to 30 | 20 to 30 | 30 to 40 | 30 to 40 |  |  |  |  |  |  |  |  |
| OCC1CCCN(Cc2ccc(-c3ccccc3)cc2)C1 (stereo not drawn) [Compound 9] | 20 to 30 | 20 to 30 | 30 to 40 | 30 to 40 |  |  |  |  |  |  |  |  |
| CN(C(=O)c1ccc(-c2ccccc2)cc1)[C@@H]1Cc2ccc(CN3CCCCC3CO)cc2C1 (stereo partly drawn) [Compound 10] | 20 to 30 | 30 to 40 | > 40 | > 40 | strongly promoted oligodendrocyte formation | accumulated 14-dehydrozymostenol |  |  |  |  |  |  |
| OCC1CCCCN1Cc1ccc(Cl)c(Cl)c1 (stereo not drawn) [Compound 11] | 20 to 30 | 30 to 40 | > 40 | > 40 | strongly promoted oligodendrocyte formation |  |  |  |  |  |  |  |
| OCCN1CCN(Cc2ccc(-c3ccccc3)cc2)CC1 [Compound 12] | ≤ 20 | 20 to 30 | 30 to 40 | > 40 |  |  |  |  |  |  |  |  |
| NC(=O)C1CCN(Cc2ccc(-c3ccccc3)cc2)CC1 [Compound 13] | 20 to 30 | 20 to 30 | 30 to 40 | > 40 |  |  |  |  |  |  |  |  |
| CSc1ccc(CN2CCCCC2CO)cc1 (stereo not drawn) [Compound 14] | 20 to 30 | 30 to 40 | 30 to 40 | 30 to 40 |  |  |  |  |  |  |  |  |
| Clc1ccc(CN2CCCCCC2)cc1Cl [Compound 15] | ≤ 20 | 20 to 30 | 30 to 40 | 30 to 40 |  |  |  |  |  |  |  |  |
| OC1CCN(Cc2ccc(-c3ccccc3)cc2)CC1 [Compound 16] | 20 to 30 | 20 to 30 | 20 to 30 | 30 to 40 |  |  |  |  |  |  |  |  |
| Clc1ccc(CN2CCCCCCC2)cc1Cl [Compound 17] | ≤ 20 | ≤ 20 | ≤ 20 | ≤ 20 |  |  |  |  |  |  |  |  |
| c1ccc(-c2ccc(CNCCc3ccc(CN4CCCCC4)cc3)cc2)cc1 [Compound 18] | 20 to 30 | 20 to 30 | 20 to 30 | 30 to 40 |  |  |  |  |  |  |  |  |
| CC(C)C(=O)NC(Cc1ccc(OCc2ccccc2)cc1)C(=O)NCCCN(C)c1ccccc1 (stereo not drawn) [Compound 19] | 20 to 30 | 20 to 30 | 30 to 40 | 30 to 40 |  |  | mid-nanomolar range | inhibition of cholesterol biosynthesis | accumulation of the 8,9-unsaturated sterol lanosterol |  |  |  |
| COc1ccc(S(=O)(=O)N2CCC(N3CCC(C)CC3)CC2)cc1 [TASINI, TASIN-1, reference compound] |  |  |  |  |  |  |  |  |  | little affinity | little affinity | little affinity |
